What was measured:
HT29 colon cancer = test: HT-29 ectopic tumor model, TH-302 with 5FU; assay type: in vivo, nude mice; settings: 5-FU 50 mg/kg IV Q3Dx4; TH-302 150 mg/kg IP Q7Dx3; alone or combined
H460 NSCLC cells = test: H460 ectopic xenograft, TH-302/pemetrexed dosing schedules; assay type: in vivo, nude mice; settings: single agent, TH-302 100 mg/kg ip Q7Dx2 or PMX 150 mg/kg ip Q7Dx2
Description: (§1) Anti-tumor activity was evaluated by tumor growth delay (TGD) and tumor growth inhibition (TGI). Body weight change, gross and microscopic assessment of tissue changes, and hematologic assays served for toxicity assessment. Testing in these models was conducted generally as follows. 1×10^6 (H460 human non-small cell lung cancer or HT1080 human fibrosarcoma cells) or 3×10^6 (PC-3 human prostate cancer cells) were implanted in the subcutaneous space of the right flank to obtain ectopic xenograft models. Randomization and dosing was initiated when tumors reached a certain size (100-150 mm^3). API grade of TH-302 was used in all experiments while docetaxel, gemcitabine, cisplatin, pemetrexed, and doxorubicin were purchased from commercial sources.
(§2) The H460 cells were prepared in 30% Matrigel and 70%. RPMI1640. Mice were anesthetized by isoflurane and were implanted subcutaneously with 1×10^6 cells (in 200 μl) at the flank position. We selected 110 mice bearing similar size tumors (˜100 mm^3) for the study. Mice bearing similar tumor size were randomly assigned into different groups. Treatment started on day 1 (7 days after tumor implantation) except as noted. TH-302 was administered intraperitoneally (IP) at 150 mg/kg, and docetaxel was administered intravenously (IV) at 10 mg/kg. Animals were observed daily and tumor measurements and body weights recorded twice weekly.
In a study conducted substantially as described above except the cells implanted were H460 NSCLC cells and 1×10^6 cells were implanted and mice were randomized into separate groups when their tumors reached ˜100 mm^3 and the chemotherapeutic employed was pemetrexed at a dose of 150 mg/kg given once a week (Q7D) for two weeks IP and the TH-302 was given at 100 mg/kg given once a week (Q7D) for two weeks IP. […]

H460 NSCLC [1] = test: H460 ectopic lung cancer model, TH-302 with pemetrexed; assay type: in vivo, nude mice; settings: PMX 150 mg/kg 1/wkx2wks IP; TH-302 50 mg/kg 5/wkx2wks IP; alone or combined
Description: (§3) Anti-tumor activity was evaluated by tumor growth inhibition (TGI) and tumor growth delay (TGD). Body weight change, gross and microscopic assessment of tissue changes, and hematologic assays served for toxicity assessment.
(§4) Testing in these models was conducted generally as follows. 1×10^6 H460 human non-small cell lung cancer or HT1080 human fibrosarcoma cells were implanted in the subcutaneous space of the right flank to obtain ectopic xenograft models. For the orthotopic pancreatic model, red-fluorescent protein (RFP) expressing MIA PaCa2 tumors were surgically implanted on the surface of the pancreas. The prostate metastatic model was created by the intraventricular injection of 3×10^6 luciferase-expressing PC-3 cells. […] API grade of TH-302 was used in all experiments while docetaxel, gemcitabine, doxorubicin and pemetrexed were purchased from commercial sources.

[2] = single agent, Phase I study; cited from earlier work
[3] = system: orthotopic prostate cancer PC-3 cells; test: Orthotopic PC-3 prostate cancer model, TH-302 with Taxol; assay type: in vivo, mice; settings: single agents: Taxol 12 mg/kg; TH-302 30 or 50 mg/kg
Description: TH-302 was tested as monotherapy and in combination with Taxol (paclitaxel) in animals bearing highly invasive and metastatic orthotopic prostate cancer PC-3 cells. Animals were randomized into 6 groups of 8 mice each and then treated either with vehicle; Taxol (12 mg/kg, IV, twice a week for 4 consecutive weeks); TH-302 (30 or 50 mg/kg, IP, once a day for 5 days a week for 2 consecutive weeks); or Taxol in combination with TH-302 (using the same single agent regimens).

[4] = system: HT1080 human fibrosarcoma cells; test: HT1080 ectopic xenograft, TH-302/doxorubicin dosing schedules; assay type: in vivo, nude mice; settings: single agent, TH-302 100 mg/kg ip 1/wkx2wks or Dox 4 mg/kg iv 1/wkx2wks
Description: as §1, §2
In a study conducted substantially as described above except the cells implanted were HT1080 human fibrosarcoma cells and 1×10^6 cells were implanted and mice were randomized into separate groups when their […]

Calu6 NSCLC = test: Calu-6 ectopic tumor model, TH-302 with doxorubicin; assay type: in vivo, nude mice; settings: Dox 4 mg/kg IV Q7Dx2; TH-302 50 mg/kg IP QDx5/wkx2wks; alone or combined
[5] = system: H460 human non-small cell lung cancer; test: H460 ectopic xenograft, TH-302/docetaxel dosing schedules; assay type: in vivo, nude mice; settings: single agent, TH-302 100 mg/kg ip once or Docetaxol 10 mg/kg iv once
Description: as §1
as §2, with “TH-302 was administered intraperitoneally (IP) at 150 mg/kg, and docetaxel was administered intravenously (IV) at 10 mg/kg.” left out

[6] = system: PC-3 human prostate cancer cells; test: PC-3 ectopic xenograft, TH-302/docetaxel dosing schedules; assay type: in vivo, nude mice; settings: single agent, TH-302 150 mg/kg ip once or Docetaxol 10 mg/kg iv once
H460 NSCLC [7] = test: H460 ectopic tumor model, TH-302 with carboplatin; assay type: in vivo, nude mice; settings: Carboplatin 20 mg/kg IV Q7Dx2; TH-302 100 mg/kg IP Q7Dx2; alone or combined
Description: as §3, §4
Inhibition of tumor growth after administration of TH-302 and carboplatin was greater than for either drug individually in an ectopic tumor model using H460 cells.

With `O=c1[nH]cc(F)c(=O)[nH]1` [Formulation 5-FU, 5-fluorouracil, reference compound] the “Days to 500 mm^3” value (HT29 colon cancer) was 31 days, the “Days to 1000 mm^3” value (HT29 colon cancer) was 43 days and the T/C (HT29 colon cancer) was 43.1%. The “TGD500, Days (vs. vehicle)” value (HT29 colon cancer) was 9 days, the “TGD1000, Days (vs. vehicle)” value (HT29 colon cancer) was 11 days and the TGI (HT29 colon cancer) was 56.9%. The “Tn (tumor volume on Day n)” value (HT29 colon cancer) was 514.11.
In the case of `Nc1nc2[nH]cc(CCc3ccc(C(=O)N[C@@H](CCC(=O)O)C(=O)O)cc3)c2c(=O)[nH]1` [PMX, pemetrexed, reference compound], the “Days to 500 mm^3” value (H460 NSCLC cells) is reported as 14 days, the “Days to 1000 mm^3” value (H460 NSCLC cells) is reported as 24 days and the T/C (H460 NSCLC cells) is reported as 72.4%. For the same compound, the “TGD500, Days (vs. vehicle)” value (H460 NSCLC cells) was 2 days, the “TGD1000, Days (vs. vehicle)” value (H460 NSCLC cells) was 3 days and the TGI (H460 NSCLC cells) was 27.6%. The “Tn (tumor volume on Day n)” value (H460 NSCLC cells) was 817.45, the “Days to 500 mm^3” value (H460 NSCLC [1]) was 19 days and the “Days to 1000 mm^3” value (H460 NSCLC [1]) was 29 days. For the same compound, the T/C (H460 NSCLC [1]) was 70.2%, the “TGD500, Days (vs. vehicle)” value (H460 NSCLC [1]) was 5 days and the “TGD1000, Days (vs. vehicle)” value (H460 NSCLC [1]) was 5 days. The TGI (H460 NSCLC [1]) was 29.8% and the “Tn (tumor volume on Day n)” value (H460 NSCLC [1]) was 850.21.
For `CS(=O)(=O)OCCN(CCBr)c1c(C(=O)NCCOP(=O)(O)O)cc([N+](=O)[O-])cc1[N+](=O)[O-]` [PR104], the “Maximum tolerated dose (MTD) and recommended dose” value [2] is listed as 1,100 mg/m^2.
In the case of `CC(=O)O[C@H]1C(=O)[C@@]2(C)[C@H]([C@H](OC(=O)c3ccccc3)[C@]3(O)C[C@H](OC(=O)[C@H](O)[C@@H](NC(=O)c4ccccc4)c4ccccc4)C(C)=C1C3(C)C)[C@]1(OC(C)=O)CO[C@@H]1C[C@@H]2O` [Taxol, paclitaxel, reference compound], the “Primary tumor growth during the treatment period” value [3] is reported as “significantly inhibited primary tumor growth”.
With `COc1cccc2c1C(=O)c1c(O)c3c(c(O)c1C2=O)C[C@@](O)(C(=O)CO)C[C@@H]3O[C@H]1C[C@H](N)[C@H](O)[C@H](C)O1` [Dox, doxorubicin, reference compound] the “Days to 500 mm^3” value [4] was 24 days, the T/C [4] was 5.1% and the “TGD500, Days (vs. vehicle)” value [4] was 12 days. For the same compound, the TGI [4] was 94.9%, the “Tn (tumor volume on Day n)” value [4] was 154.79 and the “Days to 500 mm^3” value (Calu6 NSCLC) was 27 days. The “Days to 1000 mm^3” value (Calu6 NSCLC) was 35 days, the T/C (Calu6 NSCLC) was 67.7% and the “TGD500, Days (vs. vehicle)” value (Calu6 NSCLC) was 9 days. The “TGD1000, Days (vs. vehicle)” value (Calu6 NSCLC) was 4 days, the TGI (Calu6 NSCLC) was 32.3% and the “Tn (tumor volume on Day n)” value (Calu6 NSCLC) was 773.97.
For `CC(=O)O[C@@]12CO[C@@H]1C[C@H](O)[C@@]1(C)C(=O)[C@H](O)C3=C(C)[C@@H](OC(=O)[C@H](O)[C@@H](NC(=O)OC(C)(C)C)c4ccccc4)C[C@@](O)([C@@H](OC(=O)c4ccccc4)[C@H]21)C3(C)C` [Docetaxol, docetaxel, reference compound], the “Days to 500 mm^3” value [5] was 18 days, the “Days to 1000 mm^3” value [5] was 27 days and the T/C [5] was 57.6%. The “TGD500, Days (vs. vehicle)” value [5] was 5 days, the “TGD1000, Days (vs. vehicle)” value [5] was 7 days and the TGI [5] was 42.4%. For the same compound, the “Tn (tumor volume on Day n)” value ([5]; in mm³) was 681.36, the “Days to 500 mm^3” value [6] was 26 days and the T/C [6] was 49.1%. For the same compound, the “TGD500, Days (vs. vehicle)” value [6] was 10 days, the TGI [6] was 50.9% and the “Tn (tumor volume on Day n)” value ([6]; in mm³) was 563.22.
With `N.N.O=C([O-])C1(C(=O)[O-])CCC1.[Pt+2]` [Carboplatin, carboplatin, reference compound] the “Days to 500 mm^3” value (H460 NSCLC [7]) was 11.5 days, the “Days to 1000 mm^3” value (H460 NSCLC [7]) was 18.5 days and the T/C (H460 NSCLC [7]) was 69.7%. For the same compound, the “TGD500, Days (vs. vehicle)” value (H460 NSCLC [7]) was 2 days, the “TGD1000, Days (vs. vehicle)” value (H460 NSCLC [7]) was 4.5 days and the TGI (H460 NSCLC [7]) was 30.3%. The “Tn (tumor volume on Day n)” value (H460 NSCLC [7]) was 855.6.

— patent publication US8946275B2, “Treatment of cancer using hypoxia activated prodrugs” (Threshold Pharmaceuticals, Inc., priority 2008, dated 2015)
